From patent US8877748B2, “Heterocyclic fused anthraquinone derivatives, manufacturing method and pharmaceutical composition using thereof” (National Defense Medical Center, priority 2012, dated 2014)

How the values were obtained:
DU145 = experiment: NCI one-dose screening, prostate cancer DU145; format: cell-based, human; conditions: 10 μM
M14 = experiment: NCI one-dose screening, melanoma M14; format: cell-based, human; conditions: 10 μM
SR = experiment: NCI one-dose screening, leukemia SR; format: cell-based, human; conditions: 10 μM
NCl/ADR-RES = experiment: NCI one-dose screening, breast cancer NCl/ADR-RES; format: cell-based, human; conditions: 10 μM; listed under Ovarian cancer
NCI-H322M = experiment: NCI one-dose screening, non-small cell lung cancer NCI-H322M; format: cell-based, human; conditions: 10 μM; Non-small cell lung cancer
HL-60, TB = experiment: NCI one-dose screening, leukemia HL-60, TB; format: cell-based, human; conditions: 10 μM
PC-3 = experiment: NCI one-dose screening, prostate cancer PC-3; format: cell-based, human; conditions: 10 μM
NCI-H226 = experiment: NCI one-dose screening, non-small cell lung cancer NCI-H226; format: cell-based, human; conditions: 10 μM
BT-549 = experiment: NCI one-dose screening, breast cancer BT-549; format: cell-based, human; conditions: 10 μM
SN12C = experiment: NCI one-dose screening, renal cancer SN12C; format: cell-based, human; conditions: 10 μM
UACC-62 = experiment: NCI one-dose screening, melanoma UACC-62; format: cell-based, human; conditions: 10 μM
TK-10 = experiment: NCI one-dose screening, renal cancer TK-10; format: cell-based, human; conditions: 10 μM
SK-MEL-28 = experiment: NCI one-dose screening, melanoma SK-MEL-28; format: cell-based, human; conditions: 10 μM
UO-31 = experiment: NCI one-dose screening, renal cancer UO-31; format: cell-based, human; conditions: 10 μM
A549/ATCC = experiment: NCI one-dose screening, non-small cell lung cancer A549/ATCC; format: cell-based, human; conditions: 10 μM
SK-MEL-5 = experiment: NCI one-dose screening, melanoma SK-MEL-5; format: cell-based, human; conditions: 10 μM
SF-539 = experiment: NCI one-dose screening, CNS cancer SF-539; format: cell-based, human; conditions: 10 μM
SK-MEL-2 = experiment: NCI one-dose screening, melanoma SK-MEL-2; format: cell-based, human; conditions: 10 μM
OVCAR-3 = experiment: NCI one-dose screening, ovarian cancer OVCAR-3; format: cell-based, human; conditions: 10 μM
human tumor cell lines = experiment: NCI one-dose screening, Mean / Delta / Range of growth percent over all tested cell lines; format: cell-based; conditions: 10 μM
SNB-19 = experiment: NCI one-dose screening, CNS cancer SNB-19; format: cell-based, human; conditions: 10 μM
SNB-75 = experiment: NCI one-dose screening, CNS cancer SNB-75; format: cell-based, human; conditions: 10 μM
MALME-3M = experiment: NCI one-dose screening, melanoma MALME-3M; format: cell-based, human; conditions: 10 μM
HOP-62 = experiment: NCI one-dose screening, non-small cell lung cancer HOP-62; format: cell-based, human; conditions: 10 μM
ACHN = experiment: NCI one-dose screening, renal cancer ACHN; format: cell-based, human; conditions: 10 μM
OVCAR-8 = experiment: NCI one-dose screening, ovarian cancer OVCAR-8; format: cell-based, human; conditions: 10 μM
SF-268 = experiment: NCI one-dose screening, CNS cancer SF-268; format: cell-based, human; conditions: 10 μM
HCT-15 = experiment: NCI one-dose screening, colon cancer HCT-15; format: cell-based, human; conditions: 10 μM
OVCAR-5 = experiment: NCI one-dose screening, ovarian cancer OVCAR-5; format: cell-based, human; conditions: 10 μM
OVCAR-4 = experiment: NCI one-dose screening, ovarian cancer OVCAR-4; format: cell-based, human; conditions: 10 μM
CAKI-1 = experiment: NCI one-dose screening, renal cancer CAKI-1; format: cell-based, human; conditions: 10 μM
MCF7 = experiment: NCI one-dose screening, breast cancer MCF7; format: cell-based, human; conditions: 10 μM
HCT-116 = experiment: NCI one-dose screening, colon cancer HCT-116; format: cell-based, human; conditions: 10 μM
[1] = test system: PC-3 prostate cancer cell line; experiment: SRB assay cell viability, PC-3 prostate cancer cell line; format: cell-based, human; conditions: Homo sapiens, PC-3 prostate cancer cell line, Table II prints no unit, μM printed, read-out: SRB assay: 50% inhibition of cancer cell proliferation of sample concentration (IC50) of PC-3 prostate cancer cell line
CCRF-CEM = experiment: NCI screening platform one-dose single concentration screening, leukemia CCRF-CEM; format: cell-based, human; conditions: 10 μM
SF-295 = experiment: NCI one-dose screening, CNS cancer SF-295; format: cell-based, human; conditions: 10 μM
IGROV1 = experiment: NCI one-dose screening, ovarian cancer IGROV1; format: cell-based, human; conditions: 10 μM
MDA, -MB-435 = experiment: NCI one-dose screening, breast cancer MDA, -MB-435; format: cell-based, human; conditions: 10 μM; listed under Melanoma
T-47D = experiment: NCI one-dose screening, breast cancer T-47D; format: cell-based, human; conditions: 10 μM
UACC-257 = experiment: NCI one-dose screening, melanoma UACC-257; format: cell-based, human; conditions: 10 μM
EKVX = experiment: NCI one-dose screening, non-small cell lung cancer EKVX; format: cell-based, human; conditions: 10 μM
NCI-H460 = experiment: NCI one-dose screening, non-small cell lung cancer NCI-H460; format: cell-based, human; conditions: 10 μM
COLO 205 = experiment: NCI one-dose screening, colon cancer COLO 205; format: cell-based, human; conditions: 10 μM
K562cell line = experiment: NCI one-dose screening, leukemia K562; format: cell-based, human; conditions: 10 μM
LOX IMVI = experiment: NCI one-dose screening, melanoma LOX IMVI; format: cell-based, human; conditions: 10 μM
HCC-2998 = experiment: NCI one-dose screening, colon cancer HCC-2998; format: cell-based, human; conditions: 10 μM
KM12 = experiment: NCI one-dose screening, colon cancer KM12; format: cell-based, human; conditions: 10 μM
NCI-H522 = experiment: NCI one-dose screening, non-small cell lung cancer NCI-H522; format: cell-based, human; conditions: 10 μM
786-O = experiment: NCI one-dose screening, renal cancer 786-O; format: cell-based, human; conditions: 10 μM
MOLT-4 = experiment: NCI one-dose screening, leukemia MOLT-4; format: cell-based, human; conditions: 10 μM
U251 = experiment: NCI one-dose screening, CNS cancer U251; format: cell-based, human; conditions: 10 μM
PRMI-8226 cell line = experiment: NCI one-dose screening, leukemia PRMI-8226; format: cell-based, human; conditions: 10 μM
HT29 = experiment: NCI one-dose screening, colon cancer HT29; format: cell-based, human; conditions: 10 μM
NCI-H23 = experiment: NCI one-dose screening, non-small cell lung cancer NCI-H23; format: cell-based, human; conditions: 10 μM
RXF, 393 = experiment: NCI one-dose screening, renal cancer RXF, 393; format: cell-based, human; conditions: 10 μM
HS 578-T = experiment: NCI one-dose screening, breast cancer HS 578-T; format: cell-based, human; conditions: 10 μM; Breast cancer
MDA-MB-468 = experiment: NCI one-dose screening, breast cancer MDA-MB-468; format: cell-based, human; conditions: 10 μM
MDA-MB-231/ATCC = experiment: NCI one-dose screening, breast cancer MDA-MB-231/ATCC; format: cell-based, human; conditions: 10 μM

Structure (SMILES): O=C1c2ccccc2C(=O)c2c1cc(N1CCSCC1)c1nsnc21 [C15, 4-(thiomorpholino)anthra[2,1-c][1,2,5] thiadiazol-6,11-dione]
- Growth Percent DU145 (DU145): 79.83%
- Growth Percent M14 (M14): 117.70%
- Growth Percent SR (SR): 55.02%
- Growth Percent NCI/ADR-RES (NCl/ADR-RES): 54.16%
- Growth Percent NCI-H322M (NCI-H322M): 91.69%
- Growth Percent HL-60(TB) (HL-60, TB): 51.57%
- Growth Percent PC-3 (PC-3): 56.99%
- Growth Percent NCI-H226 (NCI-H226): 78.10%
- Growth Percent BT-549 (BT-549): 104.74%
- Growth Percent SN12C (SN12C): 76.76%
- Growth Percent UACC-62 (UACC-62): 83.96%
- Growth Percent TK-10 (TK-10): 106.46%
- Growth Percent SK-MEL-28 (SK-MEL-28): 90.60%
- Growth Percent UO-31 (UO-31): 61.00%
- Growth Percent A549/ATCC (A549/ATCC): 62.74%
- Growth Percent SK-MEL-5 (SK-MEL-5): 22.81%
- Growth Percent SF-539 (SF-539): 90.64%
- Growth Percent SK-MEL-2 (SK-MEL-2): 43.98%
- Growth Percent OVCAR-3 (OVCAR-3): 41.52%
- Growth Percent Delta (human tumor cell lines; delta over all cell lines): 70.03%
- Growth Percent Mean (human tumor cell lines; mean over all cell lines): 70.31%
- Growth Percent Range (human tumor cell lines; range over all cell lines): 119.98%
- Growth Percent SNB-19 (SNB-19): 100.15%
- Growth Percent SNB-75 (SNB-75): 105.73%
- Growth Percent MALME-3M (MALME-3M): 48.56%
- Growth Percent HOP-62 (HOP-62): 76.66%
- Growth Percent ACHN (ACHN): 83.52%
- Growth Percent OVCAR-8 (OVCAR-8): 41.72%
- Growth Percent SF-268 (SF-268): 95.90%
- Growth Percent HCT-15 (HCT-15): 61.93%
- Growth Percent OVCAR-5 (OVCAR-5): 112.62%
- Growth Percent OVCAR-4 (OVCAR-4): 0.28%
- Growth Percent CAKI-1 (CAKI-1): 76.06%
- Growth Percent MCF7 (MCF7): 49.73%
- Growth Percent HCT-116 (HCT-116): 88.21%
- IC50 [1]: > 15 µM
- Growth Percent CCRF-CEM (CCRF-CEM): 43.60%
- Growth Percent SF-295 (SF-295): 94.85%
- Growth Percent IGROV1 (IGROV1): 75.28%
- Growth Percent MDA-MB-435 (MDA, -MB-435): 77.03%
- Growth Percent T-47D (T-47D): 56.78%
- Growth Percent UACC-257 (UACC-257): 35.78%
- Growth Percent EKVX (EKVX): 86.63%
- Growth Percent NCI-H460 (NCI-H460): 87.46%
- Growth Percent COLO 205 (COLO 205): 107.31%
- Growth Percent K562 (K562cell line): 59.58%
- Growth Percent LOX IMVI (LOX IMVI): 30.16%
- Growth Percent HCC-2998 (HCC-2998): 107.83%
- Growth Percent KM12 (KM12): 83.12%
- Growth Percent NCI-H522 (NCI-H522): 38.70%
- Growth Percent 786-0 (786-O): 120.26%
- Growth Percent MOLT-4 (MOLT-4): 42.86%
- Growth Percent U251 (U251): 40.24%
- Growth Percent RPMI-8226 (PRMI-8226 cell line): 56.96%
- Growth Percent HT29 (HT29): 86.91%
- Growth Percent NCI-H23 (NCI-H23): 33.45%
- melting point: 219 to 220 °C
- Growth Percent RXF 393 (RXF, 393): 85.93%
- Growth Percent HS 578T (HS 578-T): 84.36%
- Growth Percent MDA-MB-468 (MDA-MB-468): 12.59%
- Growth Percent MDA-MB-231/ATCC (MDA-MB-231/ATCC): 45.69%

Structure (SMILES): Cc1ccccc1Nc1cc2c(c3nsnc13)C(=O)c1ccccc1C2=O [C61, 4-(o-tolylamino)anthra[2,1-c][1,2,5] thiadiazol-6,11-dione]
- Growth Percent M14 (M14): 61.89%
- Growth Percent SR (SR): −15.27%
- Growth Percent NCI/ADR-RES (NCl/ADR-RES): 28.36%
- Growth Percent NCI-H322M (NCI-H322M): 64.54%
- Growth Percent HL-60(TB) (HL-60, TB): 1.11%
- Growth Percent NCI-H226 (NCI-H226): 47.00%
- Growth Percent SN12C (SN12C): 46.94%
- Growth Percent UACC-62 (UACC-62): 57.68%
- Growth Percent TK-10 (TK-10): 63.75%
- Growth Percent SK-MEL-28 (SK-MEL-28): 53.13%
- Growth Percent A549/ATCC (A549/ATCC): 27.13%
- Growth Percent SK-MEL-5 (SK-MEL-5): 8.03%
- Growth Percent SF-539 (SF-539): 47.90%
- Growth Percent SK-MEL-2 (SK-MEL-2): 32.64%
- Growth Percent OVCAR-3 (OVCAR-3): 22.37%
- Growth Percent SNB-19 (SNB-19): 61.89%
- Growth Percent SNB-75 (SNB-75): 43.18%
- Growth Percent MALME-3M (MALME-3M): 64.72%
- Growth Percent HOP-62 (HOP-62): 40.78%
- Growth Percent ACHN (ACHN): 38.07%
- Growth Percent OVCAR-8 (OVCAR-8): 22.87%
- Growth Percent SF-268 (SF-268): 39.57%
- Growth Percent HCT-15 (HCT-15): 28.74%
- Growth Percent OVCAR-5 (OVCAR-5): 79.06%
- Growth Percent OVCAR-4 (OVCAR-4): −5.69%
- Growth Percent CAKI-1 (CAKI-1): 27.55%
- Growth Percent HCT-116 (HCT-116): 24.23%
- IC50 [1]: 0.21 µM
- Growth Percent CCRF-CEM (CCRF-CEM): 17.83%
- Growth Percent SF-295 (SF-295): 34.71%
- Growth Percent IGROV1 (IGROV1): 25.29%
- Growth Percent UACC-257 (UACC-257): 33.79%
- Growth Percent EKVX (EKVX): 62.56%
- Growth Percent NCI-H460 (NCI-H460): 11.85%
- Growth Percent COLO 205 (COLO 205): 83.39%
- Growth Percent K562 (K562cell line): 16.97%
- Growth Percent LOX IMVI (LOX IMVI): 8.17%
- Growth Percent HCC-2998 (HCC-2998): 57.61%
- Growth Percent KM12 (KM12): 40.14%
- Growth Percent NCI-H522 (NCI-H522): 12.41%
- Growth Percent 786-0 (786-O): 63.62%
- Growth Percent MOLT-4 (MOLT-4): −11.92%
- Growth Percent U251 (U251): 19.18%
- Growth Percent RPMI-8226 (PRMI-8226 cell line): 16.20%
- Growth Percent HT29 (HT29): 52.64%
- Growth Percent NCI-H23 (NCI-H23): 37.57%
- melting point: 177 to 178 °C
- Growth Percent RXF 393 (RXF, 393): 45.35%
